Measured values published in patent publication US5260275A, “Hypoglycemics” (Amylin Pharmaceuticals, Inc., priority 1990, dated 1993).

How the values were obtained:
[1] = system: isolated rat islets of Langerhans; experiment: Glucose-stimulated insulin secretion from isolated rat islets of Langerhans; assay type: cell-based; conditions: substance 650 nmol/L; glucose 10 mmol/L
Experimental: The following experiments illustrate the fact that subpeptides of amylin can act to reduce the amount of insulin produced by isolated islets of Langerhans in response to a standard glucose challenge. Similar results have been obtained using whole amylin. All experiments were performed by known methods used in experimental practice. See, e.g., Lacey P. E., and Kostianovsky M., Method for the Isolation of Intact Islets of Lanaerhans from the Rat Pancreas. Diabetes 1967; 16:35-39.
Briefly, rats were killed, and islets of Langerhans were isolated from their pancreases. Experiments were performed either with freshly isolated islets or after overnight incubation of islets (23 h) in standard culture medium and conditions at 37° C. Synthetic amylin peptide 27-37 or synthetic calcitonin gene related peptide (CGRP) was dissolved in a 1.0 mmol/L citric acid/sodium citrate buffer, pH 3.0, and the concentration of the amylin 27-37 was verified by quantitative amino acid analysis. See, e.g., Cooper G. J. S. et al., Proc Natl Acad Sci USA 1987; 84:8628-8632. […] Stimulation of islets was carried out at the standard stimulatory glucose concentration of 10 mmol/L.
Production of insulin is expressed as μU/islet/h. All experiments were performed with five replicates per point. The integrity of the islet response was assessed by comparing the responses after stimulation of different aliquots of islets by two and ten mmol/L glucose, respectively, and the strength of the inhibitory response was judged against that induced by 1 μg/ml (650 nmol/L) somatostatin. Somatostatin is a 14 amino acid peptide which is a known, potent inhibitor of the insulin secretory response of islet B-cells to glucose. Arimura A. Biomed res1981; 2:233-257. […] Petterson M., Ahren B., Bottcher G., Sundler F., Endocrinology 1986; 119:865-869.
The results are shown in TABLE 5 below and all results are expressed as standard error of the mean (s.e.m.). The significance of differences between the means of groups is assessed by the t-test. The result of stimulation by 10 mmol/L glucose is compared with the results of stimulation at 2 mmol/L glucose. In all other experimental conditions, the significance of the inhibitory effect is measured against the effect of 10 mmol/L glucose alone.

HIT T-15 cells [2] = experiment: Insulin release from HIT T-15 cells; assay type: cell-based, hamster
Experimental: (§1) HIT T-15 cells (HIT cells; American Type Tissue Collection, Rockville, MD; R. F. Santerre, et al. (1981) Proc. Nat. Acad. Sci. USA 78, 4339-4343.) were subcultured weekly in Ham's F-12 medium (Irvine Scientific, Santa Ana, Calif.) containing 10% horse serum (Gemini Bioproducts, Calabasas, Calif.), 2.5% fetal bovine serum (FBS; Gemini), 2 mM L-glutamine, and 10.0 mM glucose. Cells were maintained at 37° C. and 5% CO2 / 95% humidified air and medium was replaced every 2 to 3 days. All experiments were performed with cells from passages 66 to 71.
(§2) Amylin and insulin secretion were measured using reagents of analytical grade unless otherwise indicated. The secretion medium was a Krebs-Ringer buffer (KRB) containing 119 mM NaCl, 4.74 mM KCl, 2,54 mM CaCl2, 1.19 mM MgSO4, 1.19 mM KH2 PO4, 25 mM NaHCO3, 10 mM HEPES and 0.1% protease-free bovine serum albumin (Cohn fraction V; Sigma Chemical Co., St. Louis Mo.) at pH 7.4. Glibenclamide (Sigma) was initially dissolved in ethanol (50 mg/ml) then diluted to working concentrations in KRB. […] Tolbutamide (Sigma) was initially dissolved in dimethylsulfoxide (50 mg/ml). […] Metformin (Sigma) was diluted in KRB.
(§3) Five days before each secretion study cells were subcultured at 0.26×10^6 cells/0.8 ml medium/well in 24-well tissue culture plates (Corning Glass Works, Corning N.Y.). Medium was replaced on day 3. On day 5 cells were washed twice with 1.0 ml KRB then incubated in 1.0 ml KRB (30 minutes, 37° C.) in equilibrium with air. Cells were washed twice more prior to addition of 0.5 ml KRB containing the indicated concentrations of glucose, metformin, tolbutamide and glibenclamide. After a 60 minute incubation with test substance or substances, supernatants were centrifuged (5 minutes, 500×g, 5° C.; GPKR centrifuge, Beckman Instruments, Inc., Palo Alto, Calif.) to remove cell debris, then stored in polypropylene micro test tubes (Brinkman Instrument Co., Westbury, N.Y.) at -20° C. until analyzed by radioimmunoassay. Supernatants were analyzed for insulin and amylin content within one week of collection. Three wells per plate were randomly selected for cell quantitation. Cells were incubated with 75 μg trypsin and 30 μg EDTA in 150 μl normal saline (8 minutes, 37° C.), then counted on a Coulter Counter (Model Zf, Coulter Electronics, Hialeah, Fla.).
(§4) Immunoreactive insulin content in supernatants was measured using a commercial radioimmunoassay (IM.78; Amersham, Arlington Heights, Ill.). […] The radioimmunoassay for immunoreactive amylin was as follows. Assay diluent was phosphate-buffered saline (PBS; 137 mM NaCl, 2.68 mM KCl, 1.47 mM KH2 PO4, 6.65 mM Na2 HPO4) containing 0.1% Triton-X 100 (v/v), 0.01% NaN3 (w/v), and 0.1% gelatin (v/v; teleostean, 45% aqueous solution, Sigma) at pH 7.4. All incubations were performed at 4° C. ^125 I-[Tyr 37]-human synthetic amylin tracer was iodinated by the chloramine-T method and purified on a C18 Sep-Pak (Waters Associates, Milford, Mass.). Specific activity was approximately 500 μCi/μg.
Data in FIGS. 3 and 4 are shown as the mean±S.D. of 4 replicate samples. An unpaired Student's t-test was used to compare secretion in the absence and presence of hypoglycemic agent (Statview 512+ program; Brain Power, Inc., Calabasas, Calif.).
as §1, with “Md.)” for “MD; R. F. Santerre, et al. (1981) Proc. Nat. Acad. Sci. USA 78, 4339-4343.)”, “L-glutamine, 10^5 IU penicillin G/1, 100 mg streptomycin/1” for “L-glutamine,”, “C02/” for “CO2 /”, “62” for “66”

HIT T-15 cells [3] = experiment: Amylin release from HIT T-15 cells; assay type: cell-based, hamster
Experimental: as §1, §2, §3, §4
Standards and unknowns were run in triplicate or duplicate respectively. After an 18 hour incubation, 100 μl of tracer containing 20,000 dpm was added and samples were incubated an additional 18 hours. To ensure complete immunoprecipitation of amylin:antibody complexes, 100 μl of rabbit gamma globulin (0.35 mg/ml, Scantibodies Laboratory, Santee, Calif.) and 100 μl of goat anti-rabbit gamma globulin (0.50 mg/ml, purified grade; Scantibodies) were added. After a 15 minute incubation, 1.0 ml 2% polyethylene glycol (w/v. MW 8,000; Sigma) in assay buffer was added and samples were centrifuged (30 minutes, 1500×g, 5° C.). Samples were decanted and pellets were counted on a gamma counter (model 1277; LKB Wallac, Turku, Finland).
Data in FIGS. 3 and 4 are shown as the mean±S.D. of 4 replicate samples.

HIT T-15 cells [4] = experiment: Amylin/insulin (A/I) secretion ratio of HIT T-15 cells; assay type: cell-based, hamster
Experimental: as §1, with “Md.)” for “MD; R. F. Santerre, et al. (1981) Proc. Nat. Acad. Sci. USA 78, 4339-4343.)”, “L-glutamine, 10^5 IU penicillin G/1, 100 mg streptomycin/1” for “L-glutamine,”, “C02/” for “CO2 /”, “62” for “66”
Five days before each secretion study, cells were subcultured at 0.26×10^6 cells per 0.8 ml medium per well in 24-well tissue culture plates. Medium was replaced on day 3. On day 5 cells were washed twice with […] 1.0 ml Krebs-Ringer buffer (KRB) containing 119 mM NaCl, 4.74 mM KCl, 2.54 mM CaCl2, 1.19 mM KH2 PO4, 25 mM NaHCO3, 10 mM HEPES and 0.1% protease-free bovine serum albumin (Cohn fraction V; Sigma Chemical Co., St. Louis Mo.) at pH 7.4. After washing 1.0 ml KRB was added and plates were incubated for 30 minutes at 37° C. in equilibrium with air. […] After a 60 minute incubation with test substance, supernatants were centrifuged to remove cell debris, then stored at -20° C. Supernatants were analyzed for insulin and amylin content by radioimmunoassay within one week of collection. Three wells per plate were trypsinized and cells per well were quantitated using a Coulter Counter (Model Zf, Coulter Electronics, Hialeah, Fla.). Data are expressed as the percentage change in pmoles of hormone released/10^6 cells, relative to controls (absence of test substance) or as the moles of amylin released/mole of insulin/10^6 cells/hour (A/I ratio).
Immunoreactive insulin content in supernatants was measured using a commercial radioimmunoassay (IM.78; Amersham, Arlington Heights, Ill.). Human insulin standards were prepared in KRB. […] The radioimmunoassay for immunoreactive amylin was as described in Example 7 above.

[5] = target: T1, insulin receptor on red blood cells (Homo sapiens, UniProt P06213); experiment: Displacement of insulin from its receptor on red blood cells; assay type: binding
T1 construct: endogenous in cells; host or cells: red blood cells

[6] = cells challenged with 10 mM glucose plus 15 mM arginine
[7] = 10 mM glucose or 15 mM arginine alone or in combination, n=3

In the case of `C[C@H](N)C(=O)NCC(=O)N[C@H]1CSSC[C@@H](C(=O)O)NC(=O)[C@H](CO)NC(=O)[C@H]([C@@H](C)O)NC(=O)[C@H](Cc2ccccc2)NC(=O)[C@H]([C@@H](C)O)NC(=O)[C@H](CCCCN)NC(=O)[C@H](Cc2c[nH]c3ccccc23)NC(=O)[C@H](Cc2ccccc2)NC(=O)[C@H](Cc2ccccc2)NC(=O)[C@H](CC(N)=O)NC(=O)[C@H](CCCCN)NC1=O` [Somatostatin], the Insulin production [1] is reported as 44 μU/islet/hr, the “Relative insulin secretion inhibition (percentage by which insulin production is reduced from control)” value [1] is reported as 45% and the “Effect on insulin release (in words)” value (HIT T-15 cells [2]; [6]) is reported as “suppressed both amylin and insulin release”. The “Effect on amylin release (in words)” value (HIT T-15 cells [3]; [6]) was “suppressed both amylin and insulin release” and the A/I ratio (HIT T-15 cells [4]; over the somatostatin concentration range tested, 10 mM glucose plus 15 mM arginine) was 0.36±0.02.
For `N=C(N)NCCC[C@H](N)C(=O)O` [arginine], the “Effect on insulin secretion (in words)” value (HIT T-15 cells [2]; increasing arginine, 60 min) was “stimulated amylin and insulin secretion in a dose-dependent manner”, the “Effect on amylin secretion (in words)” value (HIT T-15 cells [3]; increasing arginine, 60 min) was “stimulated amylin and insulin secretion in a dose-dependent manner” and the A/I ratio (HIT T-15 cells [4]; [7]) was 0.41±0.05. The “Mean A/I ratio” value (HIT T-15 cells [4]; over the arginine concentration range tested) was 0.44±0.02.
In the case of “amylin: 37-residue peptide hormone from pancreatic amyloid; preparation not specified at this place (KCNTATCATQRLANFLVHSSNNFGAILSSTNVGSNTY; Islet amyloid polypeptide; UniProt P10997 34-70, looked up)”, the “Displacement of insulin from its receptor (in words)” value [5] is reported as “not capable of significantly displacing insulin”.
For `O=C[C@H](O)[C@@H](O)[C@H](O)[C@H](O)CO` [glucose], the “Increase in insulin secretion” value (HIT T-15 cells [2]; 10 mM glucose, control (no drug) conditions) was 4 to 5 fold, the “Concentration of maximum insulin secretion” value (HIT T-15 cells [2]; 60 min incubation) was 20 mM and the EC50 (HIT T-15 cells [2]; Mesocricetus auratus, HIT-T15, 1 h, 60 min incubation, read-out: Half-maximal response (EC50), insulin secretion) was about 2000 µM. The “Increase in secretion of amylin” value (HIT T-15 cells [3]; 10 mM glucose, control conditions) was 2.5 to 4 fold, the “Concentration of maximum amylin secretion” value (HIT T-15 cells [3]; 60 min incubation) was 20 mM and the EC50 (HIT T-15 cells [3]; Mesocricetus auratus, HIT-T15, 1 h, 60 min incubation, read-out: Half-maximal response (EC50), amylin secretion) was about 2000 µM. For the same compound, the A/I ratio (HIT T-15 cells [4]; [7]) was 0.32±0.01.
